Experimental data reported in US20220023269A1, “Methods Of Treating Diabetes In Severe Insulin-Resistant Diabetic Subjects” (Balticgruppen Bio AB, priority 2018, published 2022).

How the values were obtained:
[1] = test system: AMPK in Wi-38 human lung fibroblast cells; experiment: AMPK activation assay in Wi-38 cells (immunoblot); assay type: cell-based; conditions: 2.5, 5 or 10 μM, 16 hours; dose-dependent
Procedure: All cell lines were lysed in 0.1 M Tris-HCl, pH 6.8, 2% SDS, 10 mM sodium fluoride (SIGMA #S7920), 10 mM β-glycerophosphate (SIGMA #G6376), and 1 mM sodium vanadate (SIGMA #72060) and supernatant collected after 1 minute at 14,000 rpm. Islets (human and mouse) were lysed in 0.1 M Tris-HCl, pH 6.8, 2% SDS, protease inhibitor (Roche #04 693 124 001) and phosphatase inhibitor (Roche #04 906 837 001). Right calf muscle, heart, iWAT, and interscapular BAT was crushed in a pestle using liquid nitrogen and homogenised in ice cold RIPA buffer (150 mM sodium chloride (SIGMA #S7653), 1.0% NP40 (USB), 0.5% sodium deoxycholate (SIGMA #D6750), 0.1% SDS, 50 mM Tris pH 8.0, 20 mM sodium pyrophosphate (SIGMA #71515), 10 mM sodium fluoride, 10 mM β-glycerolphosphate, 1 mM sodium vanadate and protease inhibitor cocktail (Roche #04693124001), 1 tablet/10 ml lysis buffer). The supernatant was collected after 2 min at 14,000 rpm. This procedure was repeated until all fat was eliminated and the supernatant was clear, at 4° C. Samples were analysed on 4-15% polyacrylamide gels. Values were normalised toward AMPKα, β-Actin, GAPDH or the respective non-phosphorylated counterpart.
Table 3 contains origin of cell lines, growth conditions and settings for activation of AMPK via the test material. […]

CBA mice on HFD = experiment: In vivo glucose uptake ([18F]-FDG PET); conditions: 2 mg/g in HFD, 2 w, vs HFD
Procedure: Mice were allowed to be awake and freely moving around in their cage after injection. After 180 minutes, mice were sacrificed under deep isoflurane anaesthesia and blood was removed by retrograde perfusion of PBS via the aorta. When the liver was pale, tissues were collected and scanned for a 10 minutes static uptake (nanoScan PET/CT, Mediso, Hungary). The tissues were then scanned ex vivo scanning to assess uptake in the isolated tissues. Images were reconstructed to a 0.4×0.4 mm resolution with a 3D iterative reconstruction with 4 iterations and 4 subsets (Mediso Tera-Tomo 3D), covering 98 mm axial distance, employing spike filter, delayed-window random correction, scatter and CT-based attenuation corrections. Volumes of interest were manually delineated over each tissue using imlook4d (www.dicom-port.com). Tracer uptake was quantified as standardised uptake values (SUV), using the formula: SUV=C/(l/m); with C being the measured tissue activity concentration (Bq/mL), l the injected dose (Bq), and m the body weight (g). C and l are decay corrected to the same time.

## O=C(Nc1nc(=O)n(Cc2ccc(Cl)cc2)s1)c1ccc(Cl)cc1 [test material, 4-chloro-N-[2-[(4-chlorophenyl)methyl]-3-oxo-1,2,4-thiadiazol-5-yl]benzamide]
[1]
  levels of pAMPK (p-T172): increased
  p-S79 ACC (pACC) levels: increased
CBA mice on HFD
  [18F]-FDG uptake in calf and thigh muscle: significant increase
  [18F]-FDG uptake in heart: significant increase
